We go through twelve compounds from publication doi:10.1101/2024.08.25.609621 (bioRxiv, 2024).

Usually Hill slope stands for the slope factor of the fitted curve. What is called IC50 is the concentration that inhibits the measured activity by half.

Several values for one entry are separate records, joined by “and”; a condition that tells them apart may be missing. Equal entries are not always repeated. Entries after “also recorded” stand apart in the source; their conditions may differ. Where two headings read alike, the source gives them in different places.

Experiment [1] addresses SARS-CoV-2 NSP3 macrodomain (Mac1) (Severe acute respiratory syndrome coronavirus 2, UniProt P0DTD1). As to the kind of experiment: biochemical. Format: binding. As to conditions: for SARS CoV-2 macrodomain HTRF assay: Hillslope: dose-response fit; for Average % competition: 200 μM, mean of three technical replicates. For orientation: TR-FRET usually uses a lanthanide donor and a delayed reading to cut background.

The target in experiment [2] is SARS-CoV-2 NSP3 macrodomain (Mac1), P43 crystal form (Severe acute respiratory syndrome coronavirus 2, UniProt P0DTD1). Format: binding. As to conditions: for 1-BDC: PanDDA background density correction; for Total number of conformations: ligand conformations modeled in Mac1 crystal structure; for X-ray crystallography: Binding site: site where the ligand is bound in the X-ray crystal structure; for Comment: comment on ligand modeling / Phe132 loop density.

Setting [3] is: occupancy estimate from PanDDA BDC.
The mark [4] stands for this setting: crystal soak 10 mM, P43 crystals.
[5] abbreviates: crystal soak 10 mM, DMSO background map.
[6] abbreviates: occupancy estimate from PanDDA 1-BDC.
[7] abbreviates: crystal soak concentration 10 mM, DMSO background map, event 1.
Setting [8] is: crystal soak concentration 10 mM, P43 crystals.
[9] abbreviates: crystal soak concentration 10 mM, DMSO background map.
Setting [10] is: TRUE = crystal structure with ligand determined.
[11] abbreviates: crystal soak, soak concentration 10 mM, P43 crystals, TRUE = ligand-binding event identified.
Setting [12] is: crystal soak, soak concentration 10 mM, DMSO background map.
Where [13] appears, read: crystal soak, soak concentration 10 mM, DMSO background map, event 1.
The mark [14] stands for this setting: crystal soak, soak concentration 10 mM, TRUE = ligand modeled.
[15] abbreviates: site of Mac1 where ligand bound in crystal structure.
[16] abbreviates: soak concentration 5 mM, DMSO background map.

The compound `OCC1C=CCCN1c1ncnc2[nH]ccc12` (centres unmarked) [AVI-5998] displayed a Hill slope in experiment [1] (HTRF dose-response fit, Mac1) of 1.2. For the same compound, the “SARS CoV-2 macrodomain HTRF assay: Hillslope” value in experiment [1] stood at 1.2. Moreover, in experiment [2], the “Occupancy difference (refined_occupancy - 2*(1-BDC))” value (from here on “Occupancy difference”) is given as 0, the “Refined ligand occupancy (%)” value amounted to 38%, the 1-BDC is 0.19 and the “Total number of conformations” value is on record as 1. The “X-ray crystallography: Binding site” value in experiment [2] is “Adenosine”. Also, the “PanDDA run, DMSO background map: 1-BDC” value in experiment [2] (DMSO background map, event 1) was 0.21 and 0.19. In addition, in experiment [2] (setting [3]), the “2*(1-BDC) (%)” value is reported as 38%.

In turn, `OC1(CNc2ncnc3[nH]ccc23)CCC(F)(F)CC1` [AVI-4308] displayed a Hill slope in experiment [1] (HTRF dose-response fit, Mac1) of 1.2. Also, in experiment [1], the “SARS CoV-2 macrodomain HTRF assay: Hillslope” value stood at 1.2. Also, in experiment [2], the “Occupancy difference” value stood at 0, the “Refined ligand occupancy (%)” value came out at 30%, the 1-BDC worked out at 0.15 and the “Total number of conformations” value was 1. In experiment [2], the “X-ray crystallography: Binding site” value is “Adenosine”. Further, in experiment [2] (DMSO background map, event 1), the “PanDDA run, DMSO background map: 1-BDC” value is 0.16. Also, the “Hit (PanDDA run, overall)” value in experiment [2] (setting [4]) was “TRUE”. Besides, in experiment [2] (setting [5]), the “Hit (PanDDA run, DMSO background map)” value is “TRUE”. Besides, the “1-BDC (PanDDA run, DMSO background map)” value in experiment [2] (crystal soak 10 mM, DMSO background map, event 1) was found to be 0.15. Moreover, the “2*(1-BDC) (%)” value in experiment [2] (setting [3]) was 30%.

In experiment [1] (HTRF dose-response fit, Mac1), `CN(CC1(O)CCOCC1)c1ncnc2[nH]ccc12` [AVI-4318] came in with a Hill slope of 1.2. Also, the “SARS CoV-2 macrodomain HTRF assay: Hillslope” value in experiment [1] amounted to 1.2. Further, in experiment [2], the “Occupancy difference” value is 0, the “Refined ligand occupancy (%)” value worked out at 50%, the 1-BDC is 0.25 and the “Total number of conformations” value came out at 1. Further, the “X-ray crystallography: Binding site” value in experiment [2] is given as “Adenosine”. In experiment [2] (DMSO background map, event 1), the “PanDDA run, DMSO background map: 1-BDC” value was 0.26 and 0.25. The “2*(1-BDC) (%)” value in experiment [2] (setting [3]) is listed as 50%.

`OCC(Nc1ncnc2[nH]ccc12)C1CC1` (centres unmarked) [AVI-3651] came in with a Hill slope in experiment [1] (HTRF dose-response fit, Mac1) of 1.2. The same compound yielded a Hill slope in experiment [1] (SARS CoV-2 macrodomain HTRF assay, dose-response) of 1.2. The inhibition at 200 µM in experiment [1] (Single dose, concentration 200 μM, read-out: Average % competition) is 85%. Further, the inhibition at 200 µM in experiment [1] (preliminary screen, compound at 200 μM, mean of 3-4 technical replicates, read-out: % competition in HTRF assay) is 85%. Besides, in experiment [2], the 1-BDC was found to be 0.18 and the “Total number of conformations” value is given as 1. The X-ray crystal structure result in experiment [2] (X-ray crystal structure determined (TRUE)) was “TRUE”. For the same compound, in experiment [2] (setting [4]), the “Pandda run, overall: Hit” value was “TRUE” and the “Pandda run, overall: Modeled” value is reported as “TRUE”. Also, in experiment [2] (setting [5]), the “PanDDA run, DMSO background map: 1-BDC” value is given as 0.18 and the “PanDDA run, DMSO background map: Hit” value was “TRUE”. The “2*(1-BDC) (%)” value in experiment [2] (setting [6]) is recorded as 36%. Besides, the Binding site entry in experiment [2] (site of ligand in X-ray crystal structure) is listed as “Adenosine”.

The compound `CC(C)(O)C1C2CCC2CN1c1ncnc2[nH]ccc12` (centres unmarked) [AVI-4128] had a Hill slope in experiment [1] (HTRF dose-response fit, Mac1) of 1.2. For the same compound, the “SARS CoV-2 macrodomain HTRF assay: Hillslope” value in experiment [1] turned out to be 1.2. In experiment [2], the “Occupancy difference” value is reported as 20, the “Refined ligand occupancy (%)” value worked out at 60%, the 1-BDC was found to be 0.2 and the Comment entry was “Weak density for open conformation”. Also, in experiment [2], the “Total number of conformations” value was determined as 1 and the “X-ray crystallography: Binding site” value was “Adenosine”. The “PanDDA run, DMSO background map: 1-BDC” value in experiment [2] (setting [7]) was 0.27 and 0.2. Further, in experiment [2] (setting [8]), the “Pandda run, overall: Hit” value is reported as “TRUE”; the “Pandda run, overall: Modeled” value is reported as “TRUE”; the “Pandda run, overall: Modeling comment” value is given as “Duplicate, not modeled; also recorded: Weak density for open conformation”. Moreover, in experiment [2] (setting [9]), the “PanDDA run, DMSO background map: Hit” value is “TRUE” and the “PanDDA run, DMSO background map: Modeled” value is given as “TRUE”. The “2*(1-BDC) (%)” value in experiment [2] (setting [3]) is reported as 40%.

In the case of `c1ccc(-n2nnnc2CSc2nnc(NC3CC3)s2)cc1` [AVI-286], the Average % competition in experiment [1] (Single dose) came out at 0%. Further, in experiment [2], the 1-BDC stood at 0.11 and the “Total number of conformations” value worked out at 1. Besides, the X-ray crystal structure entry in experiment [2] (setting [10]) is recorded as “TRUE”. In experiment [2] (setting [11]), the “Pandda run, overall: Hit” value is on record as “TRUE”. Also, in experiment [2] (setting [12]), the “PanDDA run, DMSO background map: Hit” value is “TRUE” and the “PanDDA run, DMSO background map: Modeled” value is reported as “TRUE”. For the same compound, the “PanDDA run, DMSO background map: 1-BDC” value in experiment [2] (setting [13]) amounted to 0.11. In addition, the “Pandda run, overall: Modeled” value in experiment [2] (setting [14]) is “TRUE”. Besides, in experiment [2] (setting [6]), the “2*(1-BDC) (%)” value is given as 22%. In addition, the Binding site result in experiment [2] (setting [15]) was “Distal”.

`Nc1nnc(SCCn2c(=O)oc3ccccc32)s1` [AVI-296] showed an Average % competition in experiment [1] (Single dose) of 7%. Besides, in experiment [2], the 1-BDC is on record as 0.06 and the “Total number of conformations” value is 1. Besides, the X-ray crystal structure result in experiment [2] (setting [10]) is “TRUE”. Moreover, the “Pandda run, overall: Hit” value in experiment [2] (setting [11]) was “TRUE”. Moreover, in experiment [2] (setting [12]), the “PanDDA run, DMSO background map: Hit” value is “TRUE” and the “PanDDA run, DMSO background map: Modeled” value is listed as “TRUE”. Moreover, in experiment [2] (setting [13]), the “PanDDA run, DMSO background map: 1-BDC” value was 0.06. Further, the “Pandda run, overall: Modeled” value in experiment [2] (setting [14]) is reported as “TRUE”. In addition, the “2*(1-BDC) (%)” value in experiment [2] (setting [6]) is 12%. Further, the Binding site result in experiment [2] (setting [15]) was “Distal”.

Turning to `OCC1CC=CCN1c1ncnc2[nH]ccc12` (centres unmarked) [AVI-6002], in experiment [1] (HTRF dose-response fit, Mac1), the Hill slope is given as 1.3. For the same compound, in experiment [1], the “SARS CoV-2 macrodomain HTRF assay: Hillslope” value turned out to be 1.3. Moreover, in experiment [2], the “Occupancy difference” value stood at 18, the “Refined ligand occupancy (%)” value was 50%, the 1-BDC was found to be 0.16 and the “Total number of conformations” value worked out at 1. Moreover, the “X-ray crystallography: Binding site” value in experiment [2] is “Adenosine”. In experiment [2] (DMSO background map, event 1), the “PanDDA run, DMSO background map: 1-BDC” value was 0.21 and 0.16. Moreover, the “2*(1-BDC) (%)” value in experiment [2] (setting [3]) was 32%.

As for `OC1(CNc2ncnc3[nH]ccc23)CC2CCC1CC2` (centres unmarked) [AVI-4320], in experiment [1] (HTRF dose-response fit, Mac1), the Hill slope is 1.1. Also, the “SARS CoV-2 macrodomain HTRF assay: Hillslope” value in experiment [1] turned out to be 1.1. In addition, in experiment [2], the “Occupancy difference” value is listed as 0, the “Refined ligand occupancy (%)” value stood at 28%, the 1-BDC stood at 0.14 and the “Total number of conformations” value was determined as 1. The “X-ray crystallography: Binding site” value in experiment [2] is recorded as “Adenosine”. Also, the “PanDDA run, DMSO background map: 1-BDC” value in experiment [2] (DMSO background map, event 1) was 0.14. The “2*(1-BDC) (%)” value in experiment [2] (setting [3]) is recorded as 28%.

For the compound `O[C@@H]1COC[C@H]1Nc1ncnc2[nH]ccc12` [AVI-1443], the IC50 in experiment [1] (SARS CoV-2 macrodomain HTRF assay, dose-response, read-out: IC50) is above 1000 µM. Moreover, in experiment [2] (crystal soak, soak concentration 5 mM), the “Pandda run, overall: Modeling comment” value is on record as “Weak density, not modeled”. Further, the “Pandda run, overall: Hit” value in experiment [2] (crystal soak, soak concentration 5 mM, TRUE = ligand hit) was “TRUE”. Besides, in experiment [2] (setting [16]), the “PanDDA run, DMSO background map: 1-BDC” value was 0.05 and 0.04; the “PanDDA run, DMSO background map: Hit” value is on record as “TRUE”.

Take `O=S1(=O)CCCC(O)(CNc2ncnc3[nH]ccc23)C1` (centres unmarked) [AVI-4317]: the Hill slope in experiment [1] (HTRF dose-response fit, Mac1) was determined as 1.2. The “SARS CoV-2 macrodomain HTRF assay: Hillslope” value in experiment [1] stood at 1.2. In experiment [2], the “Occupancy difference” value turned out to be 14; the “Refined ligand occupancy (%)” value is on record as 100%; the 1-BDC came out at 0.43; the Comment entry is given as “High occupancy, use manual refinement, DMSO”. Further, in experiment [2], the “Total number of conformations” value came out at 1 and the “X-ray crystallography: Binding site” value is reported as “Adenosine”. In addition, the “PanDDA run, DMSO background map: 1-BDC” value in experiment [2] (DMSO background map, event 1) was 0.43 and 0.45. The “2*(1-BDC) (%)” value in experiment [2] (setting [3]) was 86%.

`Cc1c[nH]c2ncnc(NCC3(O)CCC(C)(C)CC3)c12` [AVI-4330]: the Hill slope in experiment [1] (HTRF dose-response fit, Mac1) stood at 1.3. Besides, the “SARS CoV-2 macrodomain HTRF assay: Hillslope” value in experiment [1] is recorded as 1.3. Besides, the “PanDDA run, DMSO background map: 1-BDC” value in experiment [2] (setting [7]) is on record as 0.11. For the same compound, in experiment [2] (setting [8]), the “Pandda run, overall: Hit” value is “TRUE” and the “Pandda run, overall: Modeling comment” value is recorded as “Weak density, not modeled”. The “PanDDA run, DMSO background map: Hit” value in experiment [2] (setting [9]) is on record as “TRUE”.
